Data reported in ChEMBL document CHEMBL5352410, “Discovery of novel selenium-containing azole derivatives as antifungal agents by exploiting the hydrophobic cleft of CYP51” (Eur J Med Chem, 2022).
Values after ≈ are worked out from the molar mass of the structure shown.

Columns and labels:
[1] = tested on: Candida albicans; assay: Fungicidal activity against Candida albicans; format: functional
[2] = tested on: Candida albicans; assay: Fungicidal activity against FCZ-resistant Candida albicans 17#; format: functional
[3] = tested on: Candida albicans; assay: Fungicidal activity against FCZ-resistant Candida albicans 632; format: functional
[4] = tested on: Candida albicans; assay: Antibiofilm activity against Candida albicans SC5314 assessed as sessile minimum inhibitory concentration measured after 3 hrs by XTT assay; format: functional
[5] = tested on: Candida albicans; assay: Antifungal activity against FCZ-resistant Candida albicans CaR by CLSI based broth microdilution method; format: functional
[6] = tested on: Candida albicans; assay: Antibiofilm activity against Candida albicans SC5314 assessed as sessile minimum inhibitory concentration measured after 1.5 hrs by XTT assay; format: functional
[7] = tested on: Candida albicans; assay: Fungicidal activity against Candida albicans sc5314; format: functional
[8] = tested on: Candida albicans; assay: Antifungal activity against FCZ-resistant Candida albicans 904 by CLSI based broth microdilution method; format: functional
[9] = Metabolic stability in mouse liver microsome assessed as half life; format: ADME; details: liver microsomes
[10] = Cytotoxicity against human HL-60 cells by MTT assay; format: toxicity, cell-based
[11] = tested on: Candida albicans; assay: Antibiofilm activity against Candida albicans SC5314 assessed as sessile minimum inhibitory concentration measured after 6 hrs by XTT assay; format: functional
[12] = tested on: Candida albicans; assay: Fungicidal activity against FCZ-resistant Candida albicans 901; format: functional
[13] = tested on: Candida albicans; assay: Antifungal activity against FCZ-resistant Candida albicans 901 by CLSI based broth microdilution method; format: functional
[14] = Cytotoxicity against human PC-3 cells by MTT assay; format: toxicity, cell-based
[15] = tested on: Candida albicans; assay: Antibiofilm activity against Candida albicans CPCC400616 assessed as sessile minimum inhibitory concentration measured after 6 hrs by XTT assay; format: functional
[16] = tested on: Candida albicans; assay: Antifungal activity against FCZ-resistant Candida albicans 17# by CLSI based broth microdilution method; format: functional
[17] = Metabolic stability in mouse liver microsome assessed as clearance; format: ADME; details: liver microsomes, read-out: CLH
[18] = tested on: Candida albicans; assay: Antibiofilm activity against Candida albicans CPCC400616 assessed as sessile minimum inhibitory concentration measured after 1.5 hrs by XTT assay; format: functional
[19] = Cytotoxicity against human MDA-MB-231 cells by MTT assay; format: toxicity, cell-based
[20] = tested on: Candida albicans; assay: Fungicidal activity against FCZ-resistant Candida albicans 904; format: functional
[21] = tested on: Candida albicans; assay: Antibiofilm activity against Candida albicans CPCC400616 assessed as sessile minimum inhibitory concentration measured after 24 hrs by XTT assay; format: functional
[22] = tested on: Candida albicans; assay: Antibiofilm activity against Candida albicans CPCC400616 assessed as sessile minimum inhibitory concentration measured after 3 hrs by XTT assay; format: functional
[23] = tested on: Candida albicans; assay: Antifungal activity against FCZ-resistant Candida albicans 632 by CLSI based broth microdilution method; format: functional
[24] = tested on: Candida albicans; assay: Antibiofilm activity against Candida albicans SC5314 assessed as sessile minimum inhibitory concentration measured after 24 hrs by XTT assay; format: functional
[25] = tested on: Candida albicans; assay: Fungicidal activity against FCZ-resistant Candida albicans CaR; format: functional
[26] = tested on: Nakaseomyces glabratus; assay: Antifungal activity against Candida glabrata by CLSI based broth microdilution method; format: functional
[27] = biological target: T1, Lanosterol 14-alpha demethylase (Candida albicans (strain SC5314 / ATCC MYA-2876) (Yeast), UniProt P10613); assay: Inhibition of CYP51 of Candida albicans ATCC SC5314 assessed as increase in obtusifoliol level at 8 ug/ml incubated for 16 hrs by GC-MS analysis (reference value: 0 %); set-up: scale not given: the % may be the effect or the level left; details: at 8 µg/mL
T1 sequence (P10613 whole entry): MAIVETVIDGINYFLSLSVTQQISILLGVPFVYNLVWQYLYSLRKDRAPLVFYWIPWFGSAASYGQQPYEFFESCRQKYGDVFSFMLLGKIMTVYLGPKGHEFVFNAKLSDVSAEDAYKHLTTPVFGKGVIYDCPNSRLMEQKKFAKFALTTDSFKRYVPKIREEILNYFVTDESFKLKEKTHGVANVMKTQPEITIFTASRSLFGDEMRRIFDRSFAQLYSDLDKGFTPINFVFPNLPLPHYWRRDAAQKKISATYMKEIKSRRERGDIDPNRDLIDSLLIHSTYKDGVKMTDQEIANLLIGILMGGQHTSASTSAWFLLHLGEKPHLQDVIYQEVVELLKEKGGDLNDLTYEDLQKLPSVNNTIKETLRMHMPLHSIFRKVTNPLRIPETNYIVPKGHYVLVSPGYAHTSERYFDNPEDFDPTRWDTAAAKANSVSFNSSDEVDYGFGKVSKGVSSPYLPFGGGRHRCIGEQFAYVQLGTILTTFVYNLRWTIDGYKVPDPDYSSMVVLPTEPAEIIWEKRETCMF

[28] = biological target: T1, Lanosterol 14-alpha demethylase; assay: Inhibition of CYP51 of Candida albicans ATCC SC5314 assessed as decrease in ergosterol level by measuring residual activity at 8 ug/ml incubated for 16 hrs by GC-MS analysis (reference value: 98.3 %); details: at 8 µg/mL
[29] = biological target: T1, Lanosterol 14-alpha demethylase; assay: Inhibition of CYP51 of Candida albicans ATCC SC5314 assessed as increase in obtusifoliol level at 1 ug/ml incubated for 16 hrs by GC-MS analysis (reference value: 0 %); set-up: scale not given: the % may be the effect or the level left; details: at 1 µg/mL
[30] = tested on: Pichia kudriavzevii; assay: Antifungal activity against Pichia kudriavzevii by CLSI based broth microdilution method; format: functional
[31] = biological target: T1, Lanosterol 14-alpha demethylase; assay: Inhibition of CYP51 of Candida albicans ATCC SC5314 assessed as increase in lanosterol level at 2 ug/ml incubated for 16 hrs by GC-MS analysis (reference value: 1.7 %); set-up: scale not given: the % may be the effect or the level left; details: at 2 µg/mL
[32] = tested on: Aspergillus fumigatus; assay: Antifungal activity against Aspergillus fumigatus by CLSI based broth microdilution method; format: functional
[33] = tested on: Candida albicans; assay: Antifungal activity against Candida albicans sc5314 by CLSI based broth microdilution method; format: functional
[34] = biological target: T1, Lanosterol 14-alpha demethylase; assay: Inhibition of CYP51 of Candida albicans ATCC SC5314 assessed as decrease in ergosterol level by measuring residual activity at 1 ug/ml incubated for 16 hrs by GC-MS analysis (reference value: 98.3 %); details: at 1 µg/mL
[35] = tested on: Candida parapsilosis; assay: Antifungal activity against Candida parapsilosis by CLSI based broth microdilution method; format: functional; details: Lodderomyces parapsilosis
[36] = biological target: T1, Lanosterol 14-alpha demethylase; assay: Inhibition of CYP51 of Candida albicans ATCC SC5314 assessed as decrease in ergosterol level by measuring residual activity at 4 ug/ml incubated for 16 hrs by GC-MS analysis (reference value: 98.3 %); details: at 4 µg/mL
[37] = tested on: Cryptococcus neoformans; assay: Antifungal activity against Cryptococcus neoformans by CLSI based broth microdilution method; format: functional
[38] = biological target: T1, Lanosterol 14-alpha demethylase; assay: Inhibition of CYP51 of Candida albicans ATCC SC5314 assessed as decrease in ergosterol level by measuring residual activity at 2 ug/ml incubated for 16 hrs by GC-MS analysis (reference value: 98.3 %); details: at 2 µg/mL
[39] = biological target: T1, Lanosterol 14-alpha demethylase; assay: Inhibition of CYP51 of Candida albicans ATCC SC5314 assessed as increase in lanosterol level at 8 ug/ml incubated for 16 hrs by GC-MS analysis (reference value: 1.7 %); set-up: scale not given: the % may be the effect or the level left; details: at 8 µg/mL
[40] = biological target: T1, Lanosterol 14-alpha demethylase; assay: Inhibition of CYP51 of Candida albicans ATCC SC5314 assessed as increase in eburicol level at 4 ug/ml incubated for 16 hrs by GC-MS analysis (reference value: 0 %); set-up: scale not given: the % may be the effect or the level left; details: at 4 µg/mL
[41] = tested on: [Candida] zeylanoides; assay: Antifungal activity against Candida zeylanoides by CLSI based broth microdilution method; format: functional; details: Dujonia zeylanoides
[42] = biological target: T1, Lanosterol 14-alpha demethylase; assay: Inhibition of CYP51 of Candida albicans ATCC SC5314 assessed as increase in obtusifoliol level at 2 ug/ml incubated for 16 hrs by GC-MS analysis (reference value: 0 %); set-up: scale not given: the % may be the effect or the level left; details: at 2 µg/mL
[43] = biological target: T1, Lanosterol 14-alpha demethylase; assay: Inhibition of CYP51 of Candida albicans ATCC SC5314 assessed as increase in eburicol level at 1 ug/ml incubated for 16 hrs by GC-MS analysis (reference value: 0 %); set-up: scale not given: the % may be the effect or the level left; details: at 1 µg/mL
[44] = biological target: T1, Lanosterol 14-alpha demethylase; assay: Inhibition of CYP51 of Candida albicans ATCC SC5314 assessed as increase in lanosterol level at 1 ug/ml incubated for 16 hrs by GC-MS analysis (reference value: 1.7 %); set-up: scale not given: the % may be the effect or the level left; details: at 1 µg/mL
[45] = biological target: T1, Lanosterol 14-alpha demethylase; assay: Inhibition of CYP51 of Candida albicans ATCC SC5314 assessed as increase in obtusifoliol level at 4 ug/ml incubated for 16 hrs by GC-MS analysis (reference value: 0 %); set-up: scale not given: the % may be the effect or the level left; details: at 4 µg/mL
[46] = biological target: T1, Lanosterol 14-alpha demethylase; assay: Inhibition of CYP51 of Candida albicans ATCC SC5314 assessed as increase in eburicol level at 8 ug/ml incubated for 16 hrs by GC-MS analysis (reference value: 0 %); set-up: scale not given: the % may be the effect or the level left; details: at 8 µg/mL
[47] = biological target: T1, Lanosterol 14-alpha demethylase; assay: Inhibition of CYP51 of Candida albicans ATCC SC5314 assessed as increase in eburicol level at 2 ug/ml incubated for 16 hrs by GC-MS analysis (reference value: 0 %); set-up: scale not given: the % may be the effect or the level left; details: at 2 µg/mL
[48] = tested on: Candida albicans; assay: Antifungal activity against Candida albicans by CLSI based broth microdilution method; format: functional
[49] = biological target: T1, Lanosterol 14-alpha demethylase; assay: Inhibition of CYP51 of Candida albicans ATCC SC5314 assessed as increase in lanosterol level at 4 ug/ml incubated for 16 hrs by GC-MS analysis (reference value: 1.7 %); set-up: scale not given: the % may be the effect or the level left; details: at 4 µg/mL

Work on `Clc1ccc(C(Cn2ccnc2)[Se][Se]C(Cn2ccnc2)c2ccc(Cl)cc2)cc1` (stereo not drawn) yielded an MFC [1] of 64 µg/mL (≈ 112 µM), an MFC [2] greater than 64 µg/mL and an MFC [3] of 8 µg/mL (≈ 14.1 µM). For the same compound, the MIC50 [4] was 0.5 µg/mL (≈ 0.878 µM), the MIC80 [4] was 4 µg/mL (≈ 7.03 µM) and the MIC [5] was 2 µg/mL (≈ 3.51 µM). It also gave an MIC50 [6] of 0.5 µg/mL (≈ 0.878 µM), an MIC80 [6] of 4 µg/mL (≈ 7.03 µM) and an MFC [7] of 32 µg/mL (≈ 56.2 µM). For the same compound, the MIC [8] was 8 µg/mL (≈ 14.1 µM), the half-life [9] was 24.4 min and the IC50 [10] was 12.5 µM. It also gave an MIC50 [11] of 0.5 µg/mL (≈ 0.878 µM), an MIC80 [11] of 4 µg/mL (≈ 7.03 µM) and an MFC [12] of 4 µg/mL (≈ 7.03 µM). The MIC [13] was 1 µg/mL (≈ 1.76 µM), the IC50 [14] was 2910 nM and the MIC50 [15] was 2 µg/mL (≈ 3.51 µM). The MIC80 [15] was 32 µg/mL (≈ 56.2 µM), the MIC [16] was 8 µg/mL (≈ 14.1 µM) and the CLint scaled [17] was 25.4 mL/min/kg. For the same compound, the MIC50 [18] was 0.5 µg/mL (≈ 0.878 µM), the MIC80 [18] was 2 µg/mL (≈ 3.51 µM) and the IC50 [19] was 5.5 µM. For the same compound, the MFC [20] was 8 µg/mL (≈ 14.1 µM), the MIC50 [21] was 32 µg/mL (≈ 56.2 µM) and the MIC80 [21] was 128 µg/mL (≈ 225 µM). It also gave an MIC50 [22] of 0.5 µg/mL (≈ 0.878 µM), an MIC80 [22] of 4 µg/mL (≈ 7.03 µM) and an MIC [23] of 4 µg/mL (≈ 7.03 µM). It also gave an MIC50 [24] of 0.5 µg/mL (≈ 0.878 µM), an MIC80 [24] of 16 µg/mL (≈ 28.1 µM) and an MFC [25] greater than 64 µg/mL.

Compound `OC(Cn1cncn1)(Cn1cncn1)c1ccc(F)cc1F` [FLUCONAZOLE] has an MIC [26] of 32 µg/mL (≈ 104 µM), an Activity [27] of 14.8% and an Activity [28] of 1.1%. The MIC50 [4] was greater than 1020 µg/mL, the MIC80 [4] was greater than 1020 µg/mL and the Activity [29] was 13.9%. It also gave an MIC [30] of 32 µg/mL (≈ 104 µM), an MIC [5] greater than 64 µg/mL and an Activity [31] of 15.7%. For the same compound, the MIC50 [6] was greater than 1020 µg/mL, the MIC80 [6] was greater than 1020 µg/mL and the MIC [32] was greater than 64 µg/mL. For the same compound, the MIC [33] was 1 µg/mL (≈ 3.27 µM), the Activity [34] was 3.9% and the MIC [8] was greater than 64 µg/mL. The MIC [35] was 4 µg/mL (≈ 13.1 µM), the Activity [36] was 2.5% and the MIC [37] was 4 µg/mL (≈ 13.1 µM). For the same compound, the Activity [38] was 2.5%, the Activity [39] was 14.3% and the Activity [40] was 69.6%. For the same compound, the MIC50 [11] was greater than 1020 µg/mL, the MIC80 [11] was greater than 1020 µg/mL and the MIC [41] was 2 µg/mL (≈ 6.53 µM). The Activity [42] was 13.1%, the Activity [43] was 67.3% and the MIC [13] was greater than 64 µg/mL. The Activity [44] was 14.9%, the MIC50 [15] was greater than 1020 µg/mL and the MIC80 [15] was greater than 1020 µg/mL. The MIC [16] was greater than 64 µg/mL, the MIC50 [18] was greater than 1020 µg/mL and the MIC80 [18] was greater than 1020 µg/mL. The Activity [45] was 12.5%, the Activity [46] was 69.9% and the Activity [47] was 68.7%. It also gave an MIC50 [21] greater than 1020 µg/mL, an MIC80 [21] greater than 1020 µg/mL and an MIC [48] of 4 µg/mL (≈ 13.1 µM). For the same compound, the MIC50 [22] was greater than 1020 µg/mL, the MIC80 [22] was greater than 1020 µg/mL and the MIC [23] was greater than 64 µg/mL. For the same compound, the MIC50 [24] was greater than 1020 µg/mL, the MIC80 [24] was greater than 1020 µg/mL and the Activity [49] was 15.4%.
